Laboratory results as given in ChEMBL document CHEMBL3885861, “Open TG-GATES”.

Species on record: Rattus norvegicus
Test: Open TG-GATES - Regimen: Daily Repeat
Assay type: toxicity, organism-based, Sprague-Dawley
Set-up: regimen Daily Repeat, gender Male, age 6 weeks
Details: in vivo, iv, route intravenous injection; for APTT / Bas / Eos / Fbg / Hb / Ht / Lym / MCH / MCHC / MCV / Mono / Neu / PT / Plat / RBC / Ret / WBC: tissue Blood; for KIDNEY_L / KIDNEY_R / KIDNEY_TOTAL: tissue Kidney; for LIVER: tissue Liver; for A/G / ALP / ALT / AST / BUN / CRE / Ca / Cl / DBIL / GLC / IP / K / LDH / Na / PL / RALB / TBIL / TC / TG / TP / gamma-GTP: tissue Plasma
[1] = 0 mg/kg, 72 h, dose level Control, time 3 day
[2] = 0 mg/kg, […], dose level Control, time 7 day
[3] = 0 mg/kg, […], dose level Control, time 14 day
[4] = 0 mg/kg, […], dose level Control, time 28 day
[5] = 4 mg/kg, 72 h, dose level Low, time 3 day
[6] = 4 mg/kg, […], dose level Low, time 7 day
[7] = 4 mg/kg, […], dose level Low, time 14 day
[8] = 4 mg/kg, […], dose level Low, time 28 day

## CN(C)c1ncnc2c1ncn2[C@@H]1O[C@H](CO)[C@@H](N)[C@H]1O [PUROMYCIN AMINONUCLEOSIDE]
[1]
  TERMINAL_BW: 230.5 g
  APTT: 22.1 s
  Bas: 0%
  Eos: 1%
  Fbg: 290.4 mg/dL
  Hb: 12.9 g/dL
  Ht: 37.6%
  Lym: 76.8%
  MCH: 21.1 pg
  MCHC: 34.2%
  MCV: 61.7 fL
  Mono: 2.6%
  Neu: 18.8%
  PT: 16.1 s
  Plat: 127.4 x10_4/uL
  RBC: 610 x10_4/ul
  Ret: 5.7%
  WBC: 113.8 x10_2/uL
  KIDNEY_L: 1 g
  KIDNEY_R: 1 g
  KIDNEY_TOTAL: 2 g
  LIVER: 10.3 g
  A/G: 1.3
  ALP: 1374.2 IU/L
  ALT: 40.6 IU/L
  AST: 74 IU/L
  BUN: 17.2 mg/dL
  CRE: 0.2 mg/dL
  Ca: 10.9 mg/dL
  Cl: 106.6 meq/L
  DBIL: 0 mg/dL
  GLC: 195.8 mg/dL
  IP: 6.8 mg/dL
  K: 4.7 meq/L
  LDH: 183.8 IU/L
  Na: 142.2 meq/L
  PL: 141.6 mg/dL
  RALB: 3.1 g/dL
  TBIL: 0.008 mg/dL
  TC: 73.2 mg/dL
  TG: 95.2 mg/dL
  TP: 5.4 g/dL
  gamma-GTP: 1.8 IU/L
[2]
  TERMINAL_BW: 262.2 g
  APTT: 22.5 s
  Bas: 0%
  Eos: 1%
  Fbg: 274.8 mg/dL
  Hb: 13.7 g/dL
  Ht: 39.4%
  Lym: 80.4%
  MCH: 21.3 pg
  MCHC: 34.9%
  MCV: 61 fL
  Mono: 2%
  Neu: 15.6%
  PT: 16 s
  Plat: 111 x10_4/uL
  RBC: 645.6 x10_4/ul
  Ret: 4.8%
  WBC: 97.9 x10_2/uL
  KIDNEY_L: 1 g
  KIDNEY_R: 1.1 g
  KIDNEY_TOTAL: 2.1 g
  LIVER: 12.2 g
  A/G: 1.2
  ALP: 1257.2 IU/L
  ALT: 35.4 IU/L
  AST: 63 IU/L
  BUN: 17.6 mg/dL
  CRE: 0.2 mg/dL
  Ca: 10.7 mg/dL
  Cl: 105.6 meq/L
  DBIL: 0 mg/dL
  GLC: 210.6 mg/dL
  IP: 7.3 mg/dL
  K: 4 meq/L
  LDH: 167.4 IU/L
  Na: 142 meq/L
  PL: 141.6 mg/dL
  RALB: 3 g/dL
  TBIL: 0.018 mg/dL
  TC: 67.2 mg/dL
  TG: 108.8 mg/dL
  TP: 5.5 g/dL
  gamma-GTP: 1.4 IU/L
[3]
  TERMINAL_BW: 322.5 g
  APTT: 22 s
  Bas: 0%
  Eos: 0.8%
  Fbg: 293.8 mg/dL
  Hb: 14 g/dL
  Ht: 39.5%
  Lym: 79.4%
  MCH: 20.6 pg
  MCHC: 35.5%
  MCV: 58.3 fL
  Mono: 3.2%
  Neu: 15%
  PT: 16.3 s
  Plat: 109.5 x10_4/uL
  RBC: 679 x10_4/ul
  Ret: 3.4%
  WBC: 120 x10_2/uL
  KIDNEY_L: 1.2 g
  KIDNEY_R: 1.2 g
  KIDNEY_TOTAL: 2.4 g
  LIVER: 13.6 g
  A/G: 1.3
  ALP: 1494.8 IU/L
  ALT: 36.8 IU/L
  AST: 69.4 IU/L
  BUN: 19.2 mg/dL
  CRE: 0.2 mg/dL
  Ca: 10.9 mg/dL
  Cl: 104.6 meq/L
  DBIL: 0 mg/dL
  GLC: 204.2 mg/dL
  IP: 7.2 mg/dL
  K: 4.3 meq/L
  LDH: 176.8 IU/L
  Na: 141.6 meq/L
  PL: 144.4 mg/dL
  RALB: 3.1 g/dL
  TBIL: 0.006 mg/dL
  TC: 65.8 mg/dL
  TG: 119.8 mg/dL
  TP: 5.6 g/dL
  gamma-GTP: 2 IU/L
[4]
  TERMINAL_BW: 396.1 g
  APTT: 25.7 s
  Bas: 0%
  Eos: 1%
  Fbg: 299.6 mg/dL
  Hb: 15.2 g/dL
  Ht: 42.3%
  Lym: 74.6%
  MCH: 19.6 pg
  MCHC: 35.8%
  MCV: 54.8 fL
  Mono: 3.4%
  Neu: 19.6%
  PT: 16.3 s
  Plat: 105.3 x10_4/uL
  RBC: 772.2 x10_4/ul
  Ret: 2.2%
  WBC: 111.8 x10_2/uL
  KIDNEY_L: 1.3 g
  KIDNEY_R: 1.3 g
  KIDNEY_TOTAL: 2.7 g
  LIVER: 14.9 g
  A/G: 1
  ALP: 1115.6 IU/L
  ALT: 31 IU/L
  AST: 60.5 IU/L
  BUN: 18.6 mg/dL
  CRE: 0.2 mg/dL
  Ca: 10.4 mg/dL
  Cl: 104.2 meq/L
  DBIL: 0 mg/dL
  GLC: 184.8 mg/dL
  IP: 6.1 mg/dL
  K: 4.2 meq/L
  LDH: 174 IU/L
  Na: 142.6 meq/L
  PL: 133.4 mg/dL
  RALB: 3.1 g/dL
  TBIL: 0.01 mg/dL
  TC: 68.2 mg/dL
  TG: 101.2 mg/dL
  TP: 6.1 g/dL
  gamma-GTP: 2 IU/L
[5]
  TERMINAL_BW: 232.9 g
  APTT: 20.8 s
  Bas: 0%
  Eos: 1%
  Fbg: 318.6 mg/dL
  Hb: 13.1 g/dL
  Ht: 38.3%
  Lym: 78.6%
  MCH: 21.3 pg
  MCHC: 34.3%
  MCV: 62.1 fL
  Mono: 3%
  Neu: 16.2%
  PT: 15.9 s
  Plat: 136.9 x10_4/uL
  RBC: 616 x10_4/ul
  Ret: 5.3%
  WBC: 98.6 x10_2/uL
  KIDNEY_L: 1 g
  KIDNEY_R: 1 g
  KIDNEY_TOTAL: 1.9 g
  LIVER: 10.2 g
  A/G: 1.3
  ALP: 1424.8 IU/L
  ALT: 40.8 IU/L
  AST: 73.4 IU/L
  BUN: 17.4 mg/dL
  CRE: 0.2 mg/dL
  Ca: 11.1 mg/dL
  Cl: 104.2 meq/L
  DBIL: 0 mg/dL
  GLC: 189.4 mg/dL
  IP: 7.6 mg/dL
  K: 4.4 meq/L
  LDH: 200.6 IU/L
  Na: 141.6 meq/L
  PL: 149.2 mg/dL
  RALB: 3 g/dL
  TBIL: 0.02 mg/dL
  TC: 76 mg/dL
  TG: 102.2 mg/dL
  TP: 5.5 g/dL
  gamma-GTP: 1.2 IU/L
[6]
  TERMINAL_BW: 256.3 g
  APTT: 21 s
  Bas: 0%
  Eos: 1.4%
  Fbg: 282.8 mg/dL
  Hb: 13.4 g/dL
  Ht: 38.8%
  Lym: 76.4%
  MCH: 20.5 pg
  MCHC: 34.4%
  MCV: 59.4 fL
  Mono: 2%
  Neu: 19.2%
  PT: 15.9 s
  Plat: 118.6 x10_4/uL
  RBC: 654.8 x10_4/ul
  Ret: 3.7%
  WBC: 112.4 x10_2/uL
  KIDNEY_L: 1 g
  KIDNEY_R: 1.1 g
  KIDNEY_TOTAL: 2.1 g
  LIVER: 11 g
  A/G: 1.2
  ALP: 1296.4 IU/L
  ALT: 37.8 IU/L
  AST: 67.8 IU/L
  BUN: 17 mg/dL
  CRE: 0.2 mg/dL
  Ca: 10.6 mg/dL
  Cl: 107.2 meq/L
  DBIL: 0 mg/dL
  GLC: 180.6 mg/dL
  IP: 6.7 mg/dL
  K: 4.1 meq/L
  LDH: 149.6 IU/L
  Na: 142.6 meq/L
  PL: 139.4 mg/dL
  RALB: 3 g/dL
  TBIL: 0.014 mg/dL
  TC: 73.4 mg/dL
  TG: 87.8 mg/dL
  TP: 5.5 g/dL
[7]
  TERMINAL_BW: 310.3 g
  APTT: 23.5 s
  Bas: 0%
  Eos: 0.8%
  Fbg: 303.4 mg/dL
  Hb: 13.6 g/dL
  Ht: 38.9%
  Lym: 77.8%
  MCH: 20.7 pg
  MCHC: 35%
  MCV: 59.1 fL
  Mono: 2.4%
  Neu: 18%
  PT: 16.3 s
  Plat: 133.5 x10_4/uL
  RBC: 658 x10_4/ul
  Ret: 4.7%
  WBC: 105.4 x10_2/uL
  KIDNEY_L: 1.2 g
  KIDNEY_R: 1.3 g
  KIDNEY_TOTAL: 2.5 g
  LIVER: 12.6 g
[8]
  TERMINAL_BW: 371.4 g
  APTT: 23.1 s
  Bas: 0%
  Eos: 1.6%
  Fbg: 538.4 mg/dL
  Hb: 14.5 g/dL
  Ht: 40%
  Lym: 72.8%
  MCH: 20.2 pg
  MCHC: 36.3%
  MCV: 55.6 fL
  Mono: 3.2%
  Neu: 21.8%
  PT: 14.6 s
  Plat: 134.3 x10_4/uL
  RBC: 719.6 x10_4/ul
  Ret: 2.5%
  WBC: 156.1 x10_2/uL
  KIDNEY_L: 1.5 g
  KIDNEY_R: 1.4 g
  KIDNEY_TOTAL: 2.9 g
  LIVER: 16.8 g
